How the values were obtained:
bedstraw = assay: Test B pre/postemergence bedstraw; assay type: in vivo, Galium aparine
How it was run: (§1)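 Response is a visual 0-to-10 score relative to untreated plants, where 0 means no effect and 10 means complete control, taken twelve to sixteen days after application. Treatments went onto soil at planting and onto foliage of 1- to 4-leaf plants, using a surfactant-containing non-phytotoxic solvent.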

surinam grass = assay: Test B pre/postemergence surinam grass; assay type: in vivo, Brachiaria decumbens
How it was run: as §1

cocklebur = assay: Test B pre/postemergence cocklebur; assay type: in vivo, Xanthium strumarium
How it was run: as §1

corn = assay: Test B pre/postemergence corn; assay type: in vivo, Zea mays
How it was run: as §1

giant foxtail = assay: Test B pre/postemergence giant foxtail; assay type: in vivo, Setaria faberii
How it was run: as §1

pigweed = assay: Test B pre/postemergence pigweed; assay type: in vivo, Amaranthus retroflexus
How it was run: as §1

rape = assay: Test B pre/postemergence rape; assay type: in vivo, Brassica napus
How it was run: as §1

soybean = assay: Test B pre/postemergence soybean; assay type: in vivo, Glycine max
How it was run: as §1

sugar beet = assay: Test B pre/postemergence sugar beet; assay type: in vivo, Beta vulgaris
How it was run: as §1

velvetleaf = assay: Test B pre/postemergence velvetleaf; assay type: in vivo, Abutilon theophrasti
How it was run: as §1

wheat = assay: Test B pre/postemergence wheat; assay type: in vivo, Triticum aestivum
How it was run: as §1

wild oat = assay: Test B pre/postemergence wild oat; assay type: in vivo, Avena fatua
How it was run: as §1

purple nutsedge = assay: Test B pre/postemergence purple nutsedge; assay type: in vivo, Cyperus rotundus
How it was run: as §1

[1] = Postemergence, Rate 62 g/ha, scale 0 to 10, 0 is no effect, 10 is complete control
[2] = Postemergence, Rate 250 g/ha, scale 0 to 10, 0 no effect, 10 complete control
[3] = Preemergence, Rate 62 g/ha, scale 0 to 10 (0 no effect, 10 complete control)
[4] = Preemergence, Rate 125 g/ha, scale 0 to 10 (0 no effect, 10 complete control)
[5] = Preemergence, Rate 250 g/ha, scale of 0 to 10 where 0 is no effect and 10 is complete control
[6] = Preemergence, Rate 500 g/ha, scale 0 (no effect) to 10 (complete control)
[7] = Rate 125 g/ha, Postemergence, scale 0 to 10, 0 no effect, 10 complete control
[8] = Rate 500 g/ha, Postemergence, scale 0 to 10, 0 no effect, 10 complete control
[9] = Postemergence, Rate 125 g/ha, scale of 0 to 10 where 0 is no effect and 10 is complete control
[10] = Preemergence, Rate 62 g/ha, scale of 0 to 10 where 0 is no effect and 10 is complete control
[11] = Preemergence, Rate 125 g/ha, 0 is no effect, 10 is complete control
[12] = Preemergence, Rate 250 g/ha, scale 0 to 10, 0 is no effect, 10 is complete control
[13] = Preemergence, Rate 500 g/ha, scale 0 to 10 (0 no effect, 10 complete control)
[14] = Rate 62 g/ha, Postemergence, scale of 0 to 10 where 0 is no effect and 10 is complete control
[15] = Rate 250 g/ha, Postemergence, scale 0 to 10, 0 is no effect, 10 is complete control
[16] = Rate 500 g/ha, Postemergence, scale 0 to 10

SMILES: Cc1ccccc1Cn1c(=O)on(C(=O)N(c2ccc(F)cc2)C(C)C)c1=O [Compound 88]
- Bedstraw plant response rating (bedstraw; [1]): 3
- Bedstraw plant response rating (bedstraw; [2]): 9
- Bedstraw plant response rating (bedstraw; [3]): 0
- Plant response rating, Bedstraw (bedstraw; [4]): 0
- Plant response rating, Bedstraw (bedstraw; [5]): 0
- Bedstraw plant response rating (bedstraw; [6]): 2
- Bedstraw plant response rating (bedstraw; [7]): 8
- Bedstraw plant response rating (bedstraw; [8]): 9
- B. signalgrass plant response rating (surinam grass; [1]): 0
- B. signalgrass plant response rating (surinam grass; [2]): 0
- B. signalgrass plant response rating (surinam grass; [3]): 0
- Plant response rating, B. signalgrass (surinam grass; [4]): 2
- Plant response rating, B. signalgrass (surinam grass; [5]): 2
- B. signalgrass plant response rating (surinam grass; [6]): 5
- B. signalgrass plant response rating (surinam grass; [7]): 2
- B. signalgrass plant response rating (surinam grass; Rate 500 g/ha, Postemergence, scale of 0 to 10 where 0 is no effect and 10 is complete control): 2
- Cocklebur plant response rating (cocklebur; [1]): 0
- Cocklebur plant response rating (cocklebur; [9]): 0
- Cocklebur plant response rating (cocklebur; [2]): 1
- Cocklebur plant response rating (cocklebur; [3]): 0
- Plant response rating, Cocklebur (cocklebur; [4]): 0
- Plant response rating, Cocklebur (cocklebur; [5]): 0
- Cocklebur plant response rating (cocklebur; [6]): 0
- Cocklebur plant response rating (cocklebur; [8]): 5
- Corn plant response rating (corn; [1]): 0
- Corn plant response rating (corn; [9]): 0
- Corn plant response rating (corn; [2]): 0
- Corn plant response rating (corn; [3]): 0
- Plant response rating, Corn (corn; [4]): 0
- Plant response rating, Corn (corn; [5]): 0
- Corn plant response rating (corn; [6]): 0
- Corn plant response rating (corn; [8]): 0
- Giant foxtail plant response rating (giant foxtail; [1]): 0
- Giant foxtail plant response rating (giant foxtail; [9]): 3
- Giant foxtail plant response rating (giant foxtail; [2]): 3
- Giant foxtail plant response rating (giant foxtail; [3]): 4
- Plant response rating, Giant foxtail (giant foxtail; [4]): 6
- Plant response rating, Giant foxtail (giant foxtail; [5]): 10
- Giant foxtail plant response rating (giant foxtail; [6]): 10
- Giant foxtail plant response rating (giant foxtail; [8]): 3
- Redroot pigweed plant response rating (pigweed; [1]): 3
- Redroot pigweed plant response rating (pigweed; [9]): 3
- Redroot pigweed plant response rating (pigweed; [2]): 3
- Redroot pigweed plant response rating (pigweed; [3]): 9
- Plant response rating, Redroot pigweed (pigweed; [4]): 10
- Plant response rating, Redroot pigweed (pigweed; [5]): 10
- Redroot pigweed plant response rating (pigweed; [6]): 10
- Redroot pigweed plant response rating (pigweed; [8]): 5
- Rape plant response rating (rape; [1]): 0
- Rape plant response rating (rape; [9]): 0
- Rape plant response rating (rape; [2]): 0
- Rape plant response rating (rape; [3]): 0
- Plant response rating, Rape (rape; [4]): 0
- Plant response rating, Rape (rape; [5]): 0
- Rape plant response rating (rape; [6]): 0
- Rape plant response rating (rape; [8]): 3
- Soybean plant response rating (soybean; [1]): 1
- Soybean plant response rating (soybean; [9]): 1
- Soybean plant response rating (soybean; [2]): 1
- Soybean plant response rating (soybean; [3]): 0
- Plant response rating, Soybean (soybean; [4]): 0
- Plant response rating, Soybean (soybean; [5]): 0
- Soybean plant response rating (soybean; [6]): 2
- Soybean plant response rating (soybean; [8]): 1
- Sugarbeets plant response rating (sugar beet; [1]): 3
- Sugarbeets plant response rating (sugar beet; [9]): 5
- Sugarbeets plant response rating (sugar beet; [2]): 7
- Sugarbeets plant response rating (sugar beet; [3]): 2
- Plant response rating, Sugarbeets (sugar beet; [4]): 3
- Plant response rating, Sugarbeets (sugar beet; [5]): 6
- Sugarbeets plant response rating (sugar beet; [6]): 8
- Sugarbeets plant response rating (sugar beet; [8]): 7
- Velvetleaf plant response rating (velvetleaf; [1]): 0
- Velvetleaf plant response rating (velvetleaf; [9]): 0
- Velvetleaf plant response rating (velvetleaf; [2]): 0
- Velvetleaf plant response rating (velvetleaf; [3]): 0
- Plant response rating, Velvetleaf (velvetleaf; [4]): 0
- Plant response rating, Velvetleaf (velvetleaf; [5]): 0
- Velvetleaf plant response rating (velvetleaf; [6]): 2
- Velvetleaf plant response rating (velvetleaf; [8]): 0
- Wheat plant response rating (wheat; [1]): 0
- Wheat plant response rating (wheat; [9]): 0
- Wheat plant response rating (wheat; [2]): 0
- Wheat plant response rating (wheat; [3]): 0
- Plant response rating, Wheat (wheat; [4]): 0
- Plant response rating, Wheat (wheat; [5]): 0
- Wheat plant response rating (wheat; [6]): 0
- Wheat plant response rating (wheat; [8]): 0
- Wild oats plant response rating (wild oat; [1]): 0
- Wild oats plant response rating (wild oat; [9]): 0
- Wild oats plant response rating (wild oat; [2]): 0
- Wild oats plant response rating (wild oat; [3]): 0
- Plant response rating, Wild oats (wild oat; [4]): 2
- Plant response rating, Wild oats (wild oat; [5]): 2
- Wild oats plant response rating (wild oat; [6]): 5
- Wild oats plant response rating (wild oat; [8]): 0
- Nutsedge plant response rating (purple nutsedge; [1]): 0
- Nutsedge plant response rating (purple nutsedge; [9]): 0
- Nutsedge plant response rating (purple nutsedge; [2]): 0
- Nutsedge plant response rating (purple nutsedge; [3]): 0
- Plant response rating, Nutsedge (purple nutsedge; [4]): 0
- Plant response rating, Nutsedge (purple nutsedge; [5]): 0
- Nutsedge plant response rating (purple nutsedge; [6]): 0
- Nutsedge plant response rating (purple nutsedge; [8]): 0

SMILES: CC(C)N(C(=O)n1oc(=O)n(CC(F)(F)F)c1=O)c1ccc(F)cc1 [Compound 163]
- Bedstraw plant response rating (bedstraw; [9]): 4
- Bedstraw plant response rating (bedstraw; [10]): 0
- Bedstraw plant response rating (0 to 10 scale) (bedstraw; [11]): 0
- Bedstraw plant response rating (bedstraw; [12]): 4
- Bedstraw plant response rating (bedstraw; [13]): 4
- Bedstraw plant response rating (bedstraw; [14]): 0
- Plant response rating, Bedstraw (bedstraw; [15]): 7
- Bedstraw plant response rating (bedstraw; [16]): 9
- B. signalgrass plant response rating (surinam grass; [9]): 2
- B. signalgrass plant response rating (surinam grass; [10]): 0
- B. signalgrass plant response rating (0 to 10 scale) (surinam grass; [11]): 2
- B. signalgrass plant response rating (surinam grass; [12]): 2
- B. signalgrass plant response rating (surinam grass; [13]): 2
- B. signalgrass plant response rating (surinam grass; [14]): 0
- Plant response rating, B. signalgrass (surinam grass; [15]): 5
- B. signalgrass plant response rating (surinam grass; [8]): 6
- Cocklebur plant response rating (cocklebur; [9]): 0
- Cocklebur plant response rating (cocklebur; [10]): 0
- Cocklebur plant response rating (0 to 10 scale) (cocklebur; [11]): 0
- Cocklebur plant response rating (cocklebur; [13]): 0
- Cocklebur plant response rating (cocklebur; [14]): 0
- Plant response rating, Cocklebur (cocklebur; [15]): 3
- Cocklebur plant response rating (cocklebur; [16]): 3
- Corn plant response rating (corn; [9]): 0
- Corn plant response rating (corn; [10]): 0
- Corn plant response rating (0 to 10 scale) (corn; [11]): 0
- Corn plant response rating (corn; [12]): 0
- Corn plant response rating (corn; [13]): 2
- Corn plant response rating (corn; [14]): 0
- Plant response rating, Corn (corn; [15]): 0
- Corn plant response rating (corn; [16]): 0
- Giant foxtail plant response rating (giant foxtail; [9]): 7
- Giant foxtail plant response rating (giant foxtail; [10]): 8
- Giant foxtail plant response rating (0 to 10 scale) (giant foxtail; [11]): 8
- Giant foxtail plant response rating (giant foxtail; [12]): 8
- Giant foxtail plant response rating (giant foxtail; [13]): 10
- Giant foxtail plant response rating (giant foxtail; [14]): 6
- Plant response rating, Giant foxtail (giant foxtail; [15]): 8
- Giant foxtail plant response rating (giant foxtail; [16]): 8
- Redroot pigweed plant response rating (pigweed; [9]): 2
- Redroot pigweed plant response rating (pigweed; [12]): 6
- Redroot pigweed plant response rating (pigweed; [13]): 9
- Redroot pigweed plant response rating (pigweed; [14]): 0
- Plant response rating, Redroot pigweed (pigweed; [15]): 3
- Redroot pigweed plant response rating (pigweed; [16]): 3
- Rape plant response rating (rape; [9]): 0
- Rape plant response rating (rape; [10]): 0
- Rape plant response rating (0 to 10 scale) (rape; [11]): 0
- Rape plant response rating (rape; [12]): 7
- Rape plant response rating (rape; [13]): 8
- Rape plant response rating (rape; [14]): 0
- Plant response rating, Rape (rape; [15]): 2
- Rape plant response rating (rape; [16]): 4
- Soybean plant response rating (soybean; [9]): 2
- Soybean plant response rating (soybean; [10]): 0
- Soybean plant response rating (0 to 10 scale) (soybean; [11]): 0
- Soybean plant response rating (soybean; [12]): 0
- Soybean plant response rating (soybean; [13]): 0
- Soybean plant response rating (soybean; [14]): 2
- Plant response rating, Soybean (soybean; [15]): 3
- Soybean plant response rating (soybean; [16]): 3
- Sugarbeets plant response rating (sugar beet; [9]): 0
- Sugarbeets plant response rating (sugar beet; [10]): 0
- Sugarbeets plant response rating (0 to 10 scale) (sugar beet; [11]): 3
- Sugarbeets plant response rating (sugar beet; [12]): 4
- Sugarbeets plant response rating (sugar beet; [13]): 6
- Sugarbeets plant response rating (sugar beet; [14]): 0
- Plant response rating, Sugarbeets (sugar beet; [15]): 4
- Sugarbeets plant response rating (sugar beet; [16]): 5
- Velvetleaf plant response rating (velvetleaf; [10]): 0
- Velvetleaf plant response rating (0 to 10 scale) (velvetleaf; [11]): 2
- Velvetleaf plant response rating (velvetleaf; [12]): 5
- Velvetleaf plant response rating (velvetleaf; [13]): 5
- Plant response rating, Velvetleaf (velvetleaf; [15]): 6
- Velvetleaf plant response rating (velvetleaf; [16]): 6
- Wheat plant response rating (wheat; [10]): 0
- Wheat plant response rating (0 to 10 scale) (wheat; [11]): 2
- Wheat plant response rating (wheat; [12]): 2
- Wheat plant response rating (wheat; [13]): 4
- Plant response rating, Wheat (wheat; [15]): 2
- Wheat plant response rating (wheat; [16]): 5
- Wild oats plant response rating (wild oat; [10]): 3
- Wild oats plant response rating (0 to 10 scale) (wild oat; [11]): 3
- Wild oats plant response rating (wild oat; [12]): 7
- Wild oats plant response rating (wild oat; [13]): 10
- Plant response rating, Wild oats (wild oat; [15]): 3
- Wild oats plant response rating (wild oat; [16]): 3
- Nutsedge plant response rating (purple nutsedge; [9]): 0
- Nutsedge plant response rating (purple nutsedge; [10]): 0
- Nutsedge plant response rating (0 to 10 scale) (purple nutsedge; [11]): 0
- Nutsedge plant response rating (purple nutsedge; [12]): 0
- Nutsedge plant response rating (purple nutsedge; [13]): 0
- Nutsedge plant response rating (purple nutsedge; [14]): 0
- Plant response rating, Nutsedge (purple nutsedge; [15]): 0
- Nutsedge plant response rating (purple nutsedge; [16]): 3

From patent publication US6737383B1, “Herbicidal oxadiazolidines” (priority 1999, dated 2004)
